Source: ChEMBL document CHEMBL1138197, “Dopamine/serotonin receptor ligands. 12(1): SAR studies on hexahydro-dibenz[d,g]azecines lead to 4-chloro-7-methyl-5,6,7,8,9,14-hexahydrodibenz[d,g]azecin-3-ol, the first picomolar D5-selective dopamine-receptor antagonist” (J Med Chem, 2006)

Legend:
D(1A) dopamine receptor [1] = molecular target: T1, D(1A) dopamine receptor (Homo sapiens, UniProt P21728); test: Displacement of [3H]SCH 23390 from D1 dopamine receptor
D(2) dopamine receptor [2] = molecular target: T2, D(2) dopamine receptor (Homo sapiens, UniProt P14416); test: Inhibition of D2L dopamine receptor in HEK 293 cells by intracellular calcium assay; format: functional, cell-based, HEK293
D(1A) dopamine receptor [3] = molecular target: T1, D(1A) dopamine receptor; test: Inhibition of D1 dopamine receptor in HEK 293 cells by intracellular calcium assay; format: functional, cell-based, HEK293
D(1B) dopamine receptor [4] = molecular target: T3, D(1B) dopamine receptor (Homo sapiens, UniProt P21918); test: Inhibition of D5 dopamine receptor in HEK 293 cells by intracellular calcium assay; format: functional, cell-based, HEK293
D(2) dopamine receptor [5] = molecular target: T2, D(2) dopamine receptor; test: Displacement of [3H]spiperone from D2L dopamine receptor
D(3) dopamine receptor = D(3) dopamine receptor (Homo sapiens, UniProt P35462); test: Binding affinity to D3 dopamine receptor by radioligand binding assay
D(1B) dopamine receptor [6] = molecular target: T3, D(1B) dopamine receptor; test: Binding affinity to D5 dopamine receptor by radioligand binding assay
D(4) dopamine receptor = molecular target: T4, D(4) dopamine receptor (Homo sapiens, UniProt P21917); test: Binding affinity to D4 dopamine receptor by radioligand binding assay
T4 sequence (P21917 whole entry): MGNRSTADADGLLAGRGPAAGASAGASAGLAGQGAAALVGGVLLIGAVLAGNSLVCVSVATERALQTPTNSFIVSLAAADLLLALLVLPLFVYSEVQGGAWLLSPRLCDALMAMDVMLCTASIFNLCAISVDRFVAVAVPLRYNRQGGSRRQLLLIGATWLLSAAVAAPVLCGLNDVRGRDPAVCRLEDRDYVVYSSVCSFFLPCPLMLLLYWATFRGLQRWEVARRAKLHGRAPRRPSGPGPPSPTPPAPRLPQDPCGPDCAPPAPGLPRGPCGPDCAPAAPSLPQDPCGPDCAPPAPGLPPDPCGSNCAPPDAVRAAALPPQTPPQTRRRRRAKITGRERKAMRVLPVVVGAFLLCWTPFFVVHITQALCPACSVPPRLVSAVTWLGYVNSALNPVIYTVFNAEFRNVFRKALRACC

T2 sequence (P14416 whole entry): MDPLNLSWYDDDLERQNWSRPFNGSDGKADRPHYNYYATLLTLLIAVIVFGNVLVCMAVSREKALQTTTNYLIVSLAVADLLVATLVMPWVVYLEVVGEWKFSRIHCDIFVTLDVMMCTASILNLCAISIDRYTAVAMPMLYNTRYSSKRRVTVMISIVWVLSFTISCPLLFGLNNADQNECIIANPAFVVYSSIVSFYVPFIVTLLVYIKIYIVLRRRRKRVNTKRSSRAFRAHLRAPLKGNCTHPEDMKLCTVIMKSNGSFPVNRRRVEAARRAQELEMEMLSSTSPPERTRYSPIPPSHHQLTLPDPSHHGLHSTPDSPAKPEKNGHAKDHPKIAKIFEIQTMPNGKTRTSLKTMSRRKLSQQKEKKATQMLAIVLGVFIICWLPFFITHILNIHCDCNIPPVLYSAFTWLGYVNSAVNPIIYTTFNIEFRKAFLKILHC
D(3) dopamine receptor, sequence (P35462 whole entry): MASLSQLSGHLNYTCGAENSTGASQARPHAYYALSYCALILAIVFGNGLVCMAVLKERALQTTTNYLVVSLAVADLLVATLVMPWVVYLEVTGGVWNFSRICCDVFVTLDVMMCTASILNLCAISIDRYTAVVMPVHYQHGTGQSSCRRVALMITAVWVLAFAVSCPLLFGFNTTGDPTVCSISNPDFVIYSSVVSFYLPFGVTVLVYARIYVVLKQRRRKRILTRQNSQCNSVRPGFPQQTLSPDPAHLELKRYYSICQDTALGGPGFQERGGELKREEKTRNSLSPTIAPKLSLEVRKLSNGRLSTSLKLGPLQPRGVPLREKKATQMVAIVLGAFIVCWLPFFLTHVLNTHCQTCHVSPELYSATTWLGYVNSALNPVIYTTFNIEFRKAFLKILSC
T3 sequence (P21918 whole entry): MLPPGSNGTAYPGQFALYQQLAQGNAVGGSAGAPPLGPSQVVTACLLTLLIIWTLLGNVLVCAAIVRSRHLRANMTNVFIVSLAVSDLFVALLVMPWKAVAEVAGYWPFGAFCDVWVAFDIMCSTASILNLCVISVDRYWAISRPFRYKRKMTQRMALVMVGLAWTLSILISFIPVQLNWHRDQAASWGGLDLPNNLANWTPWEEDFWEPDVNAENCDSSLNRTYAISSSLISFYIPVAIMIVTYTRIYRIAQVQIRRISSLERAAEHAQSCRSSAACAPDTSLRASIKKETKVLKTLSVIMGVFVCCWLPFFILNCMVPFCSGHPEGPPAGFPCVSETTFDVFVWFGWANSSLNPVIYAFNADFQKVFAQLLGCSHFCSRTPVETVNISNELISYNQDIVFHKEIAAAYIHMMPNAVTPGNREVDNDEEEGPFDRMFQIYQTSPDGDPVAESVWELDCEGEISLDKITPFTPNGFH
T1 sequence (P21728 whole entry): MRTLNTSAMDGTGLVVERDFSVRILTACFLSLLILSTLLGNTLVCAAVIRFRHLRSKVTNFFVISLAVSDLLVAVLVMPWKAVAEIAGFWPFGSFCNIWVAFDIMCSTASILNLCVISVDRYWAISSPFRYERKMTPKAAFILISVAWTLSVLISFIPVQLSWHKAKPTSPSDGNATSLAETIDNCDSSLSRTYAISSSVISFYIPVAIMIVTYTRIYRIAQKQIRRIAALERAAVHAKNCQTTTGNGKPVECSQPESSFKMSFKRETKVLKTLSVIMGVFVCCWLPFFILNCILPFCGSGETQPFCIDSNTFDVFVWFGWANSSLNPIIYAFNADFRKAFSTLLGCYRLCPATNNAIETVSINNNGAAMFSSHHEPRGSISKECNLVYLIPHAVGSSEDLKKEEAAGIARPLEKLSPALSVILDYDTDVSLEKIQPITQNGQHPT

| Compound | Ki (D(1A) dopamine receptor [1]) [nM] | Ki (D(2) dopamine receptor [2]) [nM] | Ki (D(1A) dopamine receptor [3]) [nM] | Ki (D(1B) dopamine receptor [4]) [nM] | Ki (D(2) dopamine receptor [5]) [nM] | Ki (D(3) dopamine receptor) [nM] | Ki (D(1B) dopamine receptor [6]) [nM] | Ki (D(4) dopamine receptor) [nM] |
| --- | --- | --- | --- | --- | --- | --- | --- | --- |
| CN1CCc2ccccc2Cc2cc(Cl)c(O)c(Cl)c2CC1 | 3.2 | 37.5 | 3.8 | 1.2 | 88 | – | – | – |
| CN1CCc2ccccc2Cc2c(O)cccc2CC1 | 8.7 | 7.9 | 64.1 | 10.4 | 84 | 215 | – | – |
| COc1ccc2c(c1)Cc1ccccc1CCN(C)CC2 | 82 | 21.1 | 567 | 1050 | 62 | 151 | – | – |
| COc1c(Cl)cc2c(c1Cl)Cc1ccccc1CCN(C)CC2 | 25.3 | 2.5 | 34 | 59 | 210 | 415 | – | – |
| COc1cccc2c1Cc1ccccc1CCN(C)CC2 | 7.6 | 39.9 | 37.6 | 54.6 | 164 | 1830 | – | – |
| CN1CCc2ccccc2Cc2c(ccc(O)c2Cl)CC1 | 0.46 | 0.13 | 6.8 | 1.6 | 0.99 | 1.88 | 0.98 | – |
| CN1CCc2ccccc2Cc2cc(N)c(O)cc2CC1 | 9.3 | 26.1 | 20.9 | 39.5 | 37.3 | – | 226 | – |
| COc1ccc2c(c1)CCN(C)CCc1ccccc1C2 | 28.5 | 0.55 | 24.1 | 7.2 | 13 | 75.7 | – | – |
| CN1CCc2ccccc2Cc2[nH]c3ccccc3c2CC1 | 1.9 | 19 | – | 12.7 | 44.7 | – | 7.5 | – |
| CN1CCc2cc(O)ccc2Cc2ccc(O)cc2CC1 | 2 | 19 | 3.3 | 0.54 | 58.7 | 342 | 1.68 | – |
| CN1CCc2ccccc2Cc2cc(O)ccc2CC1 | 8.9 | 19 | 2.6 | 37.5 | 36.9 | 296 | 42.3 | – |
| CN1CCc2ccccc2Cc2cc(O)c(Cl)cc2CC1 | 3.1 | 4.8 | 10.8 | 3.1 | 2 | 27.7 | 4.9 | – |
| COc1ccc2c(c1)CCN(C)CCc1cc(OC)ccc1C2 | 9.4 | 0.62 | 26.9 | 11.5 | 6.5 | 102 | 12.6 | – |
| CN1CCc2ccccc2Cc2ccc(O)c(Cl)c2CC1 | 0.83 | 6.1 | 0.46 | 0.053 | 4 | 24.6 | 0.057 | 5.2 |
